For test [1], the target named is T1, HCV NS5B RdRp genotype 1b (Hepatitis C virus genotype 1b, UniProt Q9WMX2).
T1 construct: The protein was expressed with an 18 amino acid C-terminal truncation to enhance the solubility; made in house; host or cells: E. coli BL21(DE3), pET21a vector
The test is described as follows: Modified HCV NS5B RdRp enzyme assay (preincubation protocol). In kind it is biochemical. The settings on record: HCV NS5B genotype 1b. As to the method: HCVNS5B RdRp cloning, expression, and purification. The cDNA encoding the NS5B protein of HCV, genotype 1b, was cloned into the pET21a expression vector. The protein was expressed with an 18 amino acid C-terminal truncation to enhance the solubility. The E. coli competent cell line BL21(DE3) was used for expression of the protein. Cultures were grown at 37° C. for ˜4 hours until the cultures reached an optical density of 2.0 at 600 nm. The cultures were cooled to 20° C. and induced with 1 mM IPTG. Fresh ampicillin was added to a final concentration of 50 μg/ml and the cells were grown overnight at 20° C.
Cell pellets (3L) were lysed for purification to yield 15-24 mgs of purified NS5B. The lysis buffer consisted of 20 mM Tris-HCl, pH 7.4, 500 mM NaCl, 0.5% triton X-100, 1 mM DTT, 1 mM EDTA, 20% glycerol, 0.5 mg/ml lysozyme, 10 mM MgCl2, 15 ug/ml deoxyribonuclease I, and Complete TM protease inhibitor tablets (Roche). After addition of the lysis buffer, frozen cell pellets were resuspended using a tissue homogenizer. To reduce the viscosity of the sample, aliquots of the lysate were sonicated on ice using a microtip attached to a Branson sonicator. The sonicated lysate was centrifuged at 100,000×g for 1 hr at 4° C. and filtered through a 0.2 μm filter unit (Corning).
The protein was purified using three sequential chromatography steps: Heparin sepharose CL-6B, polyU sepharose 4B, and Hitrap SP sepharose (Pharmacia). The chromatography buffers were identical to the lysis buffer but contained no lysozyme, deoxyribonuclease I, MgCl2 or protease inhibitor and the NaCl concentration of the buffer was adjusted according to the requirements for charging the protein onto the column. Each column was eluted with a NaCl gradient which varied in length from 5-50 column volumes depending on the column type. After the final chromatography step, the resulting purity of the enzyme is >90% based on SDS-PAGE analysis. The enzyme was aliquoted and stored at −80° C.
Standard HCVNS5B RdRp enzyme assay. HCV RdRp genotype 1b assays were run in a final volume of 60 μl in 96 well plates (Costar 3912). The assay buffer is composed of 20 mM Hepes, pH 7.5, 2.5 mM KCl, 2.5 mM MgCl2, 1 mM DTT, 1.6 U RNAse inhibitor (Promega N2515), 0.1 mg/ml BSA (Promega R3961), and 2% glycerol. All compounds were serially diluted (3-fold) in DMSO and diluted further in water such that the final concentration of DMSO in the assay was 2%. HCV RdRp genotype 1b enzyme was used at a final concentration of 28 nM. A polyA template was used at 6 nM, and a biotinylated oligo-dT12 primer was used at 180 nM final concentration. Template was obtained commercially (Amersham 27-4110). Biotinylated primer was prepared by Sigma Genosys. 3H-UTP was used at 0.6 μCi (0.29 μM total UTP). Reactions were initiated by the addition of enzyme, incubated at 30° C. for 60 min, and stopped by adding 25 μl of 50 mM EDTA containing SPA beads (4 μg/μl, Amersham RPNQ 0007). Plates were read on a Packard Top Count NXT after >1 hr incubation at room temperature.
Modified HCVNS5B RdRp enzyme assay. A modified enzyme assay was performed essentially as described for the standard enzyme assay except for the following: The biotinylated oligo dT12 primer was precaptured on streptavidin-coated SPA beads by mixing primer and beads in assay buffer and incubating at room temperature for one hour. Unbound primer was removed after centrifugation. The primer-bound beads were resuspended in 20 mM Hepes buffer, pH 7.5 and used in the assay at final concentrations of 20 nM primer and 0.67 μg/μl beads. Order of addition in the assay: enzyme (14 nM) was added to diluted compound followed by the addition of a mixture of template (0.2 nM), 3H-UTP (0.6 μCi, 0.29 μM), and primer-bound beads, to initiate the reaction; concentrations given are final. Reactions were allowed to proceed for 4 hours at 30° C.
IC50 values for compounds were determined using seven different [I]. […]

A further test deals with HCV replicon cells. The test is described as follows: HCV replicon FRET assay. In kind it is cell-based. The source says:
FRET Assay Preparation. To perform the HCV FRET screening assay, 96-well cell culture plates were used. The FRET peptide (Anaspec, Inc.) (Taliani et al., Anal. Biochem. 1996, 240, 60-67) contains a fluorescence donor, EDANS, near one end of the peptide and an acceptor, DABCYL, near the other end. The fluorescence of the peptide is quenched by […] resonance energy transfer (RET) between the donor and the acceptor, but as the NS3 protease cleaves the peptide the products are released from RET quenching and the fluorescence of the donor becomes apparent. The assay reagent was made as follows: 5× cell Luciferase cell culture lysis reagent from Promega (#E153A) diluted to 1× with dH2O, NaCl added to 150 mM final, the FRET peptide diluted to 20 uM final from a 2 mM stock.
To prepare plates, HCV replicon cells, with or without a Renilla luciferase reporter gene, were trypsinized and placed into each well of a 96-well plate with titrated test compounds added in columns 3 through 12; columns 1 and 2 contained a control compound (HCV protease inhibitor), and the bottom row contained cells without compound. The plates were then placed in a CO2 incubator at 37° C.
Assays. Subsequent to addition of the test compounds described above (FRET Assay Preparation), at various times the plate was removed and Alamar blue solution (Trek Diagnostics, #00-100) was added per well as a measure of cellular toxicity. After reading in a Cytoflour 4000 instrument (PE Biosystems), plates were rinsed with PBS and then used for FRET assay by the addition of 30 ul of the FRET peptide assay reagent described above (FRET Assay Preparation) per well. The plate was then placed into the Cytoflour 4000 instrument which had been set to 340 excite/490 emission, automatic mode for 20 cycles and the plate read in a kinetic mode. Typically, the signal to noise using an endpoint analysis after the reads was at least three-fold. Alternatively, after Alamar blue reading, plates were rinsed with PBS, 50 ul of DMEM (high glucose) without phenol red was added and plates were then used for luciferase assay using the Promega Dual-Glo Luciferase Assay System.
Compound analysis was determined by quantification of the relative HCV replicon inhibition and the relative cytotoxicity values. To calculate cytoxicity values, the average Alamar Blue fluorescence signals from the control wells were set as 100% non-toxic. The individual signals in each of the compound test wells were then divided by the average control signal and multiplied by 100% to determine […]. To calculate the HCV replicon inhibition values, an average background value was obtained from the two wells containing the highest amount of HCV protease inhibitor at the end of the assay period. These numbers were similar to those obtained from naïve Huh-7 cells.
The background numbers were then subtracted from the average signal obtained from the control wells and this number was used as 100% activity. The individual signals in each of the compound test wells were then divided by the averaged control values after background subtraction and multiplied by 100% to determine percent activity. EC50 values for a protease inhibitor titration were calculated as the concentration which caused a 50% reduction in FRET or luciferase activity. The two numbers generated for the compound plate, percent cytoxicity and percent activity were used to determine compounds of interest for further analysis.

Setting [2] is: Hepatitis C virus, FRET assay, HCV replicon cells, read-out: EC50.

Structures are written as SMILES. Where two headings read alike, the source gives them in different places.

T1 sequence (Q9WMX2 2420-2992): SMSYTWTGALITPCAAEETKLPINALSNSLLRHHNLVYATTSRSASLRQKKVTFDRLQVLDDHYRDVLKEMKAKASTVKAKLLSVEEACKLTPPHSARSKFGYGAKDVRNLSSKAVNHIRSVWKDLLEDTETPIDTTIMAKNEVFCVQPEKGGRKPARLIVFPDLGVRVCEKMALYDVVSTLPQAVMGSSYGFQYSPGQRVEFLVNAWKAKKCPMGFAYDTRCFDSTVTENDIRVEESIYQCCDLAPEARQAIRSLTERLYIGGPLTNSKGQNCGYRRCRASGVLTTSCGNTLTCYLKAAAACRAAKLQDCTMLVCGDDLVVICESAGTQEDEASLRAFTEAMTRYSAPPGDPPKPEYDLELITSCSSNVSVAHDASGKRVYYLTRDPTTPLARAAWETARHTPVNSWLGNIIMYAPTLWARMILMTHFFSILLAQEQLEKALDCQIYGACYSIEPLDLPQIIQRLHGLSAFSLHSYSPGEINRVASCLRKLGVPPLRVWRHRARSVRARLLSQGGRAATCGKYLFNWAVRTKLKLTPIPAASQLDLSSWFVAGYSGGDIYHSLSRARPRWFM

The compound `COc1ccc2c(c1)C1CC1(C(=O)N1[C@H](C)CN(Cc3ccccc3)C[C@@H]1C)Cn1c-2c(C2CCCCC2)c2ccc(C(=O)NS(=O)(=O)N(C)C)cc21` (stereo partly shown) registered a half-maximal inhibitory concentration (IC50) in test [1] of 1000 to 10000 nM. Moreover, the EC50 with HCV replicon cells (setting [2]) was 500 to 1000 nM.

`COc1ccc2c(c1)C1CC1(C(=O)N1C[C@@H](C)N(C)[C@@H](C)C1)Cn1c-2c(C2CCCCC2)c2ccc(C(=O)NS(=O)(=O)C3CC3)cc21` (stereo partly shown) yielded an IC50 in test [1] of 1 to 500 nM. Further, the EC50 in the test with HCV replicon cells (setting [2]) fell in the range of 1 to 500 nM.

Consider `COc1ccc2c(c1)[C@@H]1C[C@]1(C(=O)N1C[C@@H](C)N(C)[C@@H](C)C1)Cn1c-2c(C2CCCCC2)c2ccc(C(=O)NS(=O)(=O)N(C)C)cc21`, for which the IC50 in test [1] is 1 to 500 nM. The compound also registered an EC50 in the test with HCV replicon cells (Hepatitis C virus) of 1 to 500 nM.

`COc1ccc2c(c1)C1CC1(C(=O)N1C[C@@H](C)N(C)[C@@H](C)C1)Cn1c-2c(C2CCCCC2)c2ccc(C(=O)NS(=O)(=O)N(C)C)cc21` (stereo partly shown): the IC50 in test [1] lay within 1 to 500 nM. For the same compound, the EC50 in the test with HCV replicon cells (Hepatitis C virus) fell in the range of 1 to 500 nM.

With `COc1ccc2c(c1)C1CC1(C(=O)N1C[C@@H](C)N(C(C)=O)[C@@H](C)C1)Cn1c-2c(C2CCCCC2)c2ccc(C(=O)NS(=O)(=O)N(C)C)cc21` (stereo partly shown), the IC50 in test [1] was in the range of 1 to 500 nM. In addition, in the test with HCV replicon cells (Hepatitis C virus), the EC50 fell in the range of 1 to 500 nM.

For `COc1ccc2c(c1)C1CC1(C(=O)N1C[C@@H](C)N(C(C)C)[C@@H](C)C1)Cn1c-2c(C2CCCCC2)c2ccc(C(=O)NS(=O)(=O)N(C)C)cc21` (stereo partly shown), the IC50 in test [1] is 1 to 500 nM. The EC50 in the test on HCV replicon cells (setting [2]) is 1 to 500 nM.

As for `COc1ccc2c(c1)[C@H]1C[C@@]1(C(=O)N1C[C@@H](C)N(C)[C@@H](C)C1)Cn1c-2c(C2CCCCC2)c2ccc(C(=O)NS(=O)(=O)N(C)C)cc21`, the IC50 in test [1] lay in the range of 1 to 500 nM. Besides, the EC50 in the test with HCV replicon cells (Hepatitis C virus) was 1 to 500 nM.

In test [1], `COc1ccc2c(c1)C1CC1(C(=O)N1C[C@@H](C)N(C)[C@@H](C)C1)Cn1c-2c(C2CCCCC2)c2ccc(C(=O)NS(=O)(=O)N3CCC3)cc21` (stereo partly shown) showed a concentration for half-maximal inhibition (IC50) of 1 to 500 nM. In addition, the EC50 with HCV replicon cells (setting [2]) is 1 to 500 nM.

For the compound `COc1ccc2c(c1)C1CC1(C(=O)N1C[C@@H](C)N(C)[C@@H](C)C1)Cn1c-2c(C2CCCCC2)c2ccc(C(=O)NS(C)(=O)=O)cc21` (stereo partly shown) [drawing 31], the IC50 in test [1] lay within 1 to 500 nM. For the same compound, in the test with HCV replicon cells (setting [2]), the EC50 was 1 to 500 nM.

Consider `COc1ccc2c(c1)C1CC1(C(=O)N1C[C@@H](C)N(C)[C@@H](C)C1)Cn1c-2c(C2CCCCC2)c2ccc(C(=O)NS(=O)(=O)C(C)C)cc21` (stereo partly shown), for which the IC50 in test [1] lay within 1 to 500 nM. For the same compound, the EC50 in the test on HCV replicon cells (setting [2]) is 1 to 500 nM.

Consider `C[C@@H]1CN(C(=O)C23CC2c2cc(OCc4ccccc4)ccc2-c2c(C4CCCCC4)c4ccc(C(=O)NS(=O)(=O)N(C)C)cc4n2C3)C[C@H](C)N1C` (stereo partly shown), for which the IC50 in test [1] was in the range of 1 to 500 nM. Moreover, the EC50 in the test with HCV replicon cells (setting [2]) lay within 1 to 500 nM.

As to `C[C@@H]1CN(C(=O)C23CC2c2cc(O)ccc2-c2c(C4CCCCC4)c4ccc(C(=O)NS(=O)(=O)N(C)C)cc4n2C3)C[C@H](C)N1C` (stereo partly shown), in test [1], the IC50 was 1 to 500 nM. Besides, the EC50 with HCV replicon cells (setting [2]) is 1 to 500 nM.

In test [1], `COc1ccc2c(c1)C1CC1(C(=O)N1C[C@@H](C)N(C)[C@@H](C)C1)Cn1c-2c(C2CCCCC2)c2ccc(C(=O)NS(C)(=O)=O)cc21` (stereo partly shown) [drawing 34] gave an IC50 of 1 to 500 nM. In the test with HCV replicon cells (FRET assay, HCV replicon cells, read-out: EC50), the EC50 fell in the range of 1 to 500 nM.

As to `COc1cccc2c1C1CC1(C(=O)N1C[C@@H](C)N(C)[C@@H](C)C1)Cn1c-2c(C2CCCCC2)c2ccc(C(=O)NS(=O)(=O)N(C)C)cc21` (stereo partly shown), the IC50 in test [1] was 1 to 500 nM. For the same compound, the EC50 with HCV replicon cells (setting [2]) was 1 to 500 nM.

For the origin of these results see US7521441B2, “Cyclopropyl fused indolobenzazepine HCV NS5B inhibitors” (Bristol-Myers Squibb Company, priority 2006, dated 2009).
